Measured values taken from PubChem BioAssay (NCI).
Where “and” joins values, the source holds several entries; their conditions need not be identical. Equal entries are not always repeated.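 Following 48 hours of exposure in 96-well plates, responses at five concentrations were used to interpolate endpoints linearly. Here, GI50 denotes the concentration required for 50% inhibition of growth. Definition used: TGI = concentration required for complete inhibition of growth.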

Key:
Assay in all cases: inhibition of tumour cell growth, NCI panel, 48 h
HL-60(TB) leukemia = system: HL-60(TB) leukemia
IGROV1 ovarian = system: IGROV1 ovarian
KM12 colon = system: KM12 colon
MALME-3M melanoma = system: MALME-3M melanoma
OVCAR-3 ovarian = system: OVCAR-3 ovarian
OVCAR-5 ovarian = system: OVCAR-5 ovarian
SK-MEL-5 melanoma = system: SK-MEL-5 melanoma
SK-OV-3 ovarian = system: SK-OV-3 ovarian
SNB-19 CNS = system: SNB-19 CNS
UO-31 renal = system: UO-31 renal

Compound	TGI (HL-60(TB) leukemia)	TGI (IGROV1 ovarian)	TGI (KM12 colon)	TGI (MALME-3M melanoma)	TGI (OVCAR-3 ovarian)	TGI (OVCAR-5 ovarian)	TGI (SK-MEL-5 melanoma)	TGI (SK-OV-3 ovarian)	TGI (SNB-19 CNS)	TGI (UO-31 renal)	GI50 (HL-60(TB) leukemia)	GI50 (IGROV1 ovarian)	GI50 (KM12 colon)	GI50 (MALME-3M melanoma)	GI50 (OVCAR-3 ovarian)	GI50 (OVCAR-5 ovarian)	GI50 (SK-MEL-5 melanoma)	GI50 (SK-OV-3 ovarian)	GI50 (SNB-19 CNS)	GI50 (UO-31 renal)
CCc1ccc(NC(=O)NC(=O)c2ccccc2[N+](=O)[O-])cc1Oc1ncc(Cl)cn1	0.0247 µM	> 100 µM	0.728 µM	> 100 µM	13.9 µM	> 100 µM	0.0327 µM	> 100 µM	> 100 µM	45.5 µM										
CC(C)c1c(-c2ccccc2)nc2c(C#N)c[nH]n2c1=O	60.4 µM	> 100 µM	> 100 µM	73.3 µM	63.8 µM	> 100 µM	40.4 µM	> 88.6 µM	> 100 µM	98.6 µM	22.3 µM	34.3 µM	31.7 µM	24.3 µM	25.2 µM	38.8 µM	19.6 µM	27.2 µM	30.8 µM	26.5 µM
COc1cc(F)c(F)c(Nc2ccc(I)cc2F)c1NS(=O)(=O)C1(C[C@H](O)CO)CC1	> 10 µM	> 5.56 µM	> 10 µM	0.22 µM	> 10 µM	> 10 µM	> 10 µM	> 10 µM	> 10 µM	> 10 µM	0.0219 µM	0.223 µM	0.371 µM	0.0198 µM	> 6.76 µM	0.0597 µM	1.02 µM	3.42 µM	1.83 µM	0.295 µM
CCNc1cc(-c2cccc(OC(F)(F)F)c2)nc2ccc(N3CCCC3)cc12	4.27 µM	4.79 µM	4.77 µM	3.36 µM	3.14 µM	7.63 µM	2.84 µM	3.86 µM	10.9 µM	2.71 µM	1.97 µM	1.78 µM	1.97 µM	1.74 µM	1.56 µM	2.36 µM	1.51 µM	1.8 µM	3.12 µM	1.36 µM
OCc1ccc(N2CCc3cccc(F)c3C2)cc1Cl	53.2 µM	0.101 µM	48.6 µM	63.6 µM	0.0505 µM	0.151 µM	35.4 µM	14.6 µM	> 100 µM	46.6 µM	18.4 µM	0.025 µM	15.7 µM	24.1 µM	< 0.0169 µM	0.0253 µM	14.9 µM	1.89 µM	30.9 µM	14.5 µM
COc1ccc(/C=C/C(=O)/C=C/c2cc3ccccc3[nH]c2=O)cc1	17.6 µM	5.1 µM	6.95 µM	35.6 µM	7.91 µM	19.9 µM	25.1 µM	26.7 µM	29 µM	17.9 µM	3.24 µM	2.21 µM	2.62 µM	9.17 µM	2.85 µM	5.13 µM	11 µM	9.22 µM	10.6 µM	3.48 µM
COC(=O)c1cc2c3ccccc3n3c(=O)c4cc5ccc(N(S(=O)(=O)c6ccc(C)cc6)S(=O)(=O)c6ccc(C)cc6)cc5nc4c(n1)c23	> 100 µM	> 100 µM	> 100 µM	> 100 µM	> 100 µM	> 100 µM	> 100 µM	> 100 µM	78.3 µM	> 100 µM	> 100 µM	43.7 µM	> 100 µM	69.7 µM	> 100 µM	> 100 µM	> 100 µM	26.2 µM	26.6 µM	> 100 µM
CN(C)CCNc1ccc(CO)c2sc3ccc(O)cc3c(=O)c12	6.13 µM	16.4 µM	7.3 µM	9.81 µM	23.5 µM	14.6 µM	8.37 µM	8.29 µM	11.9 µM	6.68 µM										
CC1=Nc2c(ccc3c2C(=O)c2ccccc2C3=O)NC(c2cccc3c2CCC3)C1 (stereo not given)	> 100 µM	> 100 µM	> 100 µM	> 100 µM	> 100 µM	> 100 µM	> 100 µM	> 100 µM	> 100 µM	> 100 µM										
Cc1ncc(C(=O)Nc2ccc(CN3CCN(C)CC3)c(C(F)(F)F)c2)cc1C#Cc1cnc2cccnn12	1.17 µM	4.45 µM	2.64 µM	0.355 µM	2.52 µM	5.84 µM	1.26 µM	7.19 µM	5.63 µM	1.91 µM	0.195 µM	0.268 µM	0.005 µM	0.0895 µM	0.643 µM	0.335 µM	0.595 µM	1.63 µM	1.22 µM	0.242 µM
Cc1ccccc1NC(=O)c1cc(-c2ccc([N+](=O)[O-])cc2)nc(=S)[nH]1	> 100 µM	> 100 µM	> 100 µM	> 100 µM	> 100 µM	> 100 µM	> 100 µM	> 100 µM	> 100 µM	> 100 µM										
CC(C)Nc1cc(-c2c[nH]c(C(=O)N[C@H](CO)c3cccc(Cl)c3)c2)c(Cl)cn1	4.67 µM and > 10 µM	20.5 µM and > 10 µM	15.5 µM and > 10 µM	0.149 µM	18.8 µM and > 10 µM	16.2 µM and > 10 µM	7.82 µM and 9.83 µM	18 µM and > 10 µM	20.6 µM and > 10 µM	14.5 µM and > 10 µM	0.378 µM and 0.272 µM	0.516 µM and 0.366 µM	0.751 µM and 0.444 µM	0.0249 µM and 0.0475 µM	4.66 µM and > 9.46 µM	0.259 µM and 0.187 µM	0.64 µM and 0.752 µM	3.23 µM and > 7.67 µM	4.84 µM	0.986 µM and 0.838 µM
COc1ccc(OC)c(NC(=O)CCC/C(CC(=O)c2ccc(O)c(OC)c2)=N\Nc2nnc(C)n2N)c1	> 100 µM	> 100 µM	> 100 µM	> 100 µM	> 100 µM	> 100 µM	> 100 µM	> 100 µM	> 100 µM	> 100 µM										
CCCCCCCCCCCCCCCCCC1=NC(C)(C)CN1CC(C)O (stereo not given)	24.8 µM	27.7 µM	19.5 µM	34.4 µM	19.5 µM	31.7 µM	32 µM	37 µM	31.5 µM	29.4 µM	4.82 µM	10.1 µM	6.18 µM	17.1 µM	5.35 µM	15.5 µM	17.4 µM	18.8 µM	7.08 µM	13.8 µM
O=C1c2ccccc2-[n+]2ccc3c([nH]c4ccccc43)c21	1.38 µM	0.671 µM	0.636 µM	0.181 µM	0.432 µM	1.48 µM	0.4 µM	6.27 µM	2.27 µM	3.28 µM										
CC[C@H](Nc1ncnc2nc[nH]c12)c1nc2cccc(F)c2c(=O)n1-c1ccccc1	56.5 µM	22.7 µM	> 100 µM	> 100 µM	> 100 µM	> 100 µM	> 100 µM	> 100 µM	> 100 µM	> 68.7 µM	4.72 µM	4.09 µM	43.7 µM	17.2 µM	10.2 µM	45 µM	26.1 µM	16.7 µM	39.3 µM	3.5 µM
CC(C)c1cnn2c(NCc3ccccc3)cc(NC[C@H]3CCNC[C@@H]3O)nc12	0.584 µM and 1.71 µM	11 µM and 10.3 µM	3.31 µM and 2.5 µM	2.6 µM and 2.72 µM	8.66 µM and 4.17 µM	6.72 µM and 5.38 µM	2.35 µM and 3.59 µM	15.1 µM and 16.5 µM	9.76 µM and 8.48 µM	11.8 µM and 12 µM	0.132 µM and 0.297 µM	0.252 µM and 0.279 µM	0.353 µM and 0.407 µM	0.805 µM and 0.3 µM	0.489 µM and 0.707 µM	0.312 µM and 0.575 µM	0.742 µM and 1.19 µM	4.71 µM and 3.41 µM	0.495 µM and 0.611 µM	2 µM and 2.65 µM
Nc1nonc1-c1nc2cnccc2n1C1CC1	14.6 µM	> 25 µM	> 20.9 µM	> 25 µM	> 25 µM	> 25 µM	> 19 µM	18.4 µM	> 25 µM	> 25 µM	5.32 µM	8.76 µM	6.46 µM	> 15.9 µM	7.55 µM	5.14 µM	5.81 µM	4.36 µM	12 µM	2.09 µM
COC(=O)/C=C(C)/C=C/C1OC(C)OCC1O (stereo not given)	> 100 µM	> 100 µM	> 100 µM	> 100 µM	> 100 µM	> 100 µM	> 100 µM	> 100 µM	> 100 µM	> 100 µM										
COc1ccc(NC(=O)/C(=C/c2ccccc2)C(C)=O)cc1	17.7 µM	38.6 µM	27.5 µM	32.3 µM	29.9 µM	34.1 µM	28.2 µM	95.1 µM	33.4 µM	29 µM										
CCOC(=O)C(Cc1c[nH]c2c(N(CCO)CCO)cccc12)(NC(C)=O)C(=O)OCC	> 1000 µM	> 1000 µM	978 µM	> 1000 µM	873 µM	> 1000 µM	> 1000 µM	> 1000 µM	> 1000 µM	> 1000 µM	318 µM	643 µM	302 µM	202 µM	270 µM	> 1000 µM	323 µM	> 1000 µM	> 1000 µM	> 1000 µM
C=CCNc1nc2c(s1)C(=O)c1ccccc1C2=O	4.02 µM	38.3 µM	28.1 µM	25.6 µM	37.6 µM	37.5 µM	3.1 µM	31.7 µM	19.2 µM	26.1 µM										
COc1ccc2c(=O)cc(-c3ccccc3)[nH]c2c1	1.19 µM	> 100 µM	> 100 µM	> 100 µM	2.14 µM	> 100 µM	7.4 µM	> 30.8 µM	> 100 µM	> 100 µM	0.256 µM	0.578 µM	0.405 µM	0.684 µM	0.408 µM	22.2 µM	0.323 µM	1.17 µM	1.75 µM	0.716 µM
O=C(Cc1nc2ccccc2c(=O)n1-c1ccccc1Cl)c1ccncc1	> 100 µM	> 100 µM	> 100 µM	> 100 µM	> 100 µM	> 100 µM	> 100 µM	> 100 µM	> 100 µM	> 100 µM										
